Key:
Type in all cases: functional, cell-based
[1] = system: DU-4475; experiment: Antiproliferative activity against human DU4475 cells after 72 hrs by MTT assay; settings: DU-4475, 72 h
[2] = system: MDA-MB-231; experiment: Antiproliferative activity against human MDA-MB-231 cells after 72 hrs by MTT assay; settings: MDA-MB-231, 72 h
[3] = system: MDA-MB-468; experiment: Antiproliferative activity against human MDA-MB-468 cells after 72 hrs by MTT assay; settings: MDA-MB-468, 72 h
[4] = system: HCC1806; experiment: Antiproliferative activity against human HCC1806 cells after 72 hrs by MTT assay; settings: HCC1806, 72 h

| Structure (SMILES) | IC50 [2] | IC50 [3] | IC50 [4] | IC50 [1] |
| --- | --- | --- | --- | --- |
| C=C1C(=O)[C@@]23C(=O)C[C@@H]4C(C)(C)CCC[C@@]4(COC(C)=O)[C@@H]2CC[C@@H]1[C@H]3OC(C)=O | 3.66 µM | 2.49 µM | 2.87 µM | 1.81 µM |
| C=C1C(=O)[C@@]23C(=O)[C@@H]4OC[C@]5(C=CCC(C)(C)[C@@H]45)[C@@H]2CC[C@@H]1[C@H]3OC(=O)c1ccc2ncccc2c1 | 2.11 µM | 2.56 µM | 2.67 µM | 2.59 µM |
| C=C1C(=O)[C@@]23C(=O)[C@@H]4OC[C@]5(C=CCC(C)(C)[C@@H]45)[C@@H]2CC[C@@H]1[C@H]3OC(=O)c1cccnc1 | 1.07 µM | 1.37 µM | 2.73 µM | 2.62 µM |
| C=C1C(=O)[C@@]23C(=O)[C@@H]4OC[C@]5(C=CCC(C)(C)[C@@H]45)[C@@H]2CC[C@@H]1[C@H]3OC(=O)c1ccc(Cl)cc1 | 1.39 µM | 1.88 µM | 1.93 µM | 1.95 µM |
| C=C1C(=O)[C@@]23C(=O)[C@@H]4OC[C@]5(C=CCC(C)(C)[C@@H]45)[C@@H]2CC[C@@H]1[C@H]3OC(=O)/C=C/c1cncnc1 | 1.08 µM | 0.84 µM | 0.77 µM | 0.62 µM |
| C=C1C(=O)[C@@]23C(=O)[C@@H]4OC[C@]5(C=CCC(C)(C)[C@@H]45)[C@@H]2CC[C@@H]1[C@H]3OC(=O)/C=C/c1cccnc1 | 0.68 µM | 0.53 µM | 0.31 µM | 0.34 µM |
| C=C1C(=O)[C@@]23C(=O)[C@@H]4OC[C@]5(C=CCC(C)(C)[C@@H]45)[C@@H]2CC[C@@H]1[C@H]3OC(=O)C1CCCCC1 | 1.6 µM | 2.4 µM | 2.58 µM | 2.14 µM |
| C=C1C(=O)[C@@]23C(=O)[C@@H]4OC[C@]5(C=CCC(C)(C)[C@@H]45)[C@@H]2CC[C@@H]1[C@H]3OC(=O)/C=C/c1ccc(F)cc1 | 1.18 µM | 1.6 µM | 1.63 µM | 1.75 µM |
| C=C1C(=O)[C@@]23C(=O)[C@@H]4OC[C@]5(C=CCC(C)(C)[C@@H]45)[C@@H]2CC[C@@H]1[C@H]3OC(=O)C=C(C)C | 2.09 µM | 2.81 µM | 3.06 µM | 2.72 µM |
| C=C1C(=O)[C@@]23C(=O)[C@@H]4OC[C@]5(C=CCC(C)(C)[C@@H]45)[C@@H]2CC[C@@H]1[C@H]3OC(=O)/C=C/c1ccccn1 | 1.45 µM | 1.08 µM | 0.6 µM | 0.47 µM |
| C=C1C(=O)[C@@]23C(=O)[C@@H]4OC[C@]5(C=CCC(C)(C)[C@@H]45)[C@@H]2CC[C@@H]1[C@H]3OC(=O)c1ccc(F)cc1 | 1.41 µM | 2.05 µM | 1.65 µM | 2.05 µM |
| C=C1C(=O)[C@@]23C(=O)[C@@H]4OC[C@]5(C=CCC(C)(C)[C@@H]45)[C@@H]2CC[C@@H]1[C@H]3OC(=O)/C=C/c1ccc2occc2c1 | 2.16 µM | 2.44 µM | 2.05 µM | 2.4 µM |
| C=C1C(=O)[C@@]23C(=O)[C@@H]4OC[C@]5(C=CCC(C)(C)[C@@H]45)[C@@H]2CC[C@@H]1[C@H]3OC(=O)/C=C/c1ccc(Cl)cc1 | 1.62 µM | 2.34 µM | 1.97 µM | 2.15 µM |
| C=C1C(=O)[C@@]23C(=O)[C@@H]4OC[C@]5(C=CCC(C)(C)[C@@H]45)[C@@H]2CC[C@@H]1[C@H]3OC(=O)/C=C/c1ccncc1F | 0.85 µM | 1.04 µM | 1.14 µM | 1.1 µM |
| C=C1C(=O)[C@@]23C(=O)[C@@H]4OC[C@]5(C=CCC(C)(C)[C@@H]45)[C@@H]2CC[C@@H]1[C@H]3OC(=O)c1ccc(S(C)(=O)=O)cc1 | 1.13 µM | 1.38 µM | 1.17 µM | 1.28 µM |
| C=C1C(=O)[C@@]23C(=O)[C@@H]4OC[C@]5(CCCC(C)(C)[C@@H]45)[C@@H]2CC[C@@H]1[C@H]3O | 1.74 µM | 2.29 µM | 2.05 µM | 1.56 µM |
| C=C1C(=O)[C@]23[C@H](O)[C@H]1CC[C@H]2[C@]12CCCC(C)(C)[C@H]1C[C@@]3(O)OC2 | 3.44 µM | 2.45 µM | 2.92 µM | 1.88 µM |
| C=C1C(=O)[C@@]23C(=O)[C@@H]4OC[C@]5(C=CCC(C)(C)[C@@H]45)[C@@H]2CC[C@@H]1[C@H]3OC(=O)c1cnccn1 | 0.53 µM | 0.76 µM | 0.73 µM | 0.71 µM |
| C=C1C(=O)[C@@]23C(=O)[C@@H]4OC[C@]5(C=CCC(C)(C)[C@@H]45)[C@@H]2CC[C@@H]1[C@H]3OC(=O)/C=C/c1ccccc1 | 1.37 µM | 1.63 µM | 1.55 µM | 1.64 µM |
| C=C1C(=O)[C@@]23C(=O)[C@@H]4OC[C@]5(C=CCC(C)(C)[C@@H]45)[C@@H]2CC[C@@H]1[C@H]3OC(=O)c1ccc(OC)cc1 | 1.3 µM | 2.02 µM | 1.71 µM | 1.89 µM |
| C=C1C(=O)[C@@]23C(=O)[C@@H]4OC[C@]5(C=CCC(C)(C)[C@@H]45)[C@@H]2CC[C@@H]1[C@H]3OC(=O)/C=C/c1ccoc1 | 1.28 µM | 1.34 µM | 1.22 µM | 1.38 µM |
| C=C1C(=O)[C@@]23C(=O)[C@@H]4OC[C@]5(C=CCC(C)(C)[C@@H]45)[C@@H]2CC[C@@H]1[C@H]3OC(=O)CCc1ccccc1 | 1.42 µM | 1.94 µM | 1.62 µM | 1.74 µM |

Further molecules by falling IC50 [2], results first:

| IC50 [2] | IC50 [3] | IC50 [4] | Structure (SMILES) | IC50 [1] |
| --- | --- | --- | --- | --- |
| 7.45 µM | 8.96 µM | 7.12 µM | C=C1C(=O)[C@@]23C(=O)[C@@H]4OC[C@]5(C=CCC(C)(C)[C@@H]45)[C@@H]2CC[C@@H]1[C@H]3OC(=O)c1ccccc1 | 8.5 µM |
| 3.71 µM | 1.66 µM | 2.42 µM | C=C1C(=O)[C@@]23C(=O)[C@@H](OC(C)=O)[C@@H]4C(C)(C)CC=C[C@@]4(COC(C)=O)[C@@H]2CC[C@@H]1[C@H]3OC(C)=O | 1.9 µM |
| 2.23 µM | 2.65 µM | 3.02 µM | C=C1C(=O)[C@@]23C(=O)[C@@H]4OC[C@]5(C=CCC(C)(C)[C@@H]45)[C@@H]2CC[C@@H]1[C@H]3OC(=O)/C=C/c1ccc2c(c1)OCO2 | 2.48 µM |
| 2.18 µM | 3.07 µM | 2.74 µM | C=C1C(=O)[C@@]23C(=O)[C@@H]4OC[C@]5(C=CCC(C)(C)[C@@H]45)[C@@H]2CC[C@@H]1[C@H]3OC(=O)/C=C/c1ccsc1 | 2.82 µM |
| 1.68 µM | 2.4 µM | 2.42 µM | C=C1C(=O)[C@@]23C(=O)[C@@H]4OC[C@@]5([C@H]4C(C)(C)CC[C@@H]5O)[C@@H]2CC[C@@H]1[C@H]3O | 1.37 µM |
| 1.48 µM | 1.99 µM | 1.85 µM | C=C1C(=O)[C@@]23C(=O)[C@@H]4OC[C@]5(C=CCC(C)(C)[C@@H]45)[C@@H]2CC[C@@H]1[C@H]3OC(=O)/C=C(\C)c1ccccc1 | 2.44 µM |
| 1.47 µM | 2.25 µM | 1.78 µM | C=C1C(=O)[C@@]23C(=O)[C@@H]4OC[C@]5(C=CCC(C)(C)[C@@H]45)[C@@H]2CC[C@@H]1[C@H]3OC(=O)/C=C/c1ccc2ccccc2c1 | 2 µM |
| 1.42 µM | 1.75 µM | 1.93 µM | C=C1C(=O)[C@@]23C(=O)[C@@H]4OC[C@]5(C=CCC(C)(C)[C@@H]45)[C@@H]2CC[C@@H]1[C@H]3OC(=O)/C=C/c1ccnc(OC)c1 | 1.63 µM |
| 1.31 µM | 2.29 µM | 1.96 µM | C=C1C(=O)[C@@]23C(=O)[C@@H]4OC[C@]5(C=CCC(C)(C)[C@@H]45)[C@@H]2CC[C@@H]1[C@H]3OC(=O)/C=C/c1ccc(OC)cc1 | 2.32 µM |
| 1.3 µM | 0.99 µM | 0.97 µM | C=C1C(=O)[C@@]23C(=O)[C@@H]4OC[C@]5(C=CCC(C)(C)[C@@H]45)[C@@H]2CC[C@@H]1[C@H]3O | 0.92 µM |
| 1.12 µM | 1.47 µM | 0.71 µM | C=C1C(=O)[C@@]23C(=O)[C@@H]4OC[C@]5(C=CCC(C)(C)[C@@H]45)[C@@H]2CC[C@@H]1[C@H]3OC(=O)c1ccccn1 | 0.78 µM |
| 1.08 µM | 1.32 µM | 1.39 µM | C=C1C(=O)[C@@]23C(=O)[C@@H]4OC[C@]5(C=CCC(C)(C)[C@@H]45)[C@@H]2CC[C@@H]1[C@H]3OC(=O)c1ccncc1 | 1.42 µM |
| 0.76 µM | 0.99 µM | 1.73 µM | C=C1C(=O)[C@@]23C(=O)[C@@H]4OC[C@]5(C=CCC(C)(C)[C@@H]45)[C@@H]2CC[C@@H]1[C@H]3OC(=O)C1CC1 | 1.06 µM |
| 0.7 µM | 1.03 µM | 1.12 µM | C=C1C(=O)[C@@]23C(=O)[C@@H]4OC[C@]5(C=CCC(C)(C)[C@@H]45)[C@@H]2CC[C@@H]1[C@H]3OC(=O)/C=C/c1ccnc(F)c1 | 0.94 µM |
| 0.64 µM | 0.85 µM | 0.82 µM | C=C1C(=O)[C@@]23C(=O)[C@@H]4OC[C@]5(C=CCC(C)(C)[C@@H]45)[C@@H]2CC[C@@H]1[C@H]3OC(=O)/C=C/c1ccncc1Cl | 0.86 µM |
| 0.64 µM | 0.85 µM | 0.74 µM | C=C1C(=O)[C@@]23C(=O)[C@@H]4OC[C@]5(C=CCC(C)(C)[C@@H]45)[C@@H]2CC[C@@H]1[C@H]3OC(=O)c1ccncn1 | 0.85 µM |

— ChEMBL document CHEMBL4627407, “Identification of a Potent Oridonin Analogue for Treatment of Triple-Negative Breast Cancer” (J Med Chem, 2020)
